According to patent US20220364139A1, “METHODS FOR DETERMINING GROWTH AND RESPONSE” (PATAIGIN, LLC, priority 2019, published 2022):

Tested on: P. fluorescens strain that is susceptible to kanamycin
Test: Growth inhibition of P. fluorescens in 8% D2O, read from deuterated vs undeuterated membrane lipid ions by MALDI mass spectrometry
Type: cell-based, Pseudomonas fluorescens
Settings: range of antibiotic concentrations, FIG. 2
Experimental: In FIG. 1 is shown eight MALDI mass spectra from about 680 to 730 m/z in negative ionization mode of membrane lipids extracted from a P. fluorescens strain that is susceptible to kanamycin. The aforementioned P. fluorescens strain was grown in seven environments containing Mueller-Hinton media and water containing 8% D2O, with each of the seven environments also having a concentration of kanamycin from 0 μg/mL to 200 μg/mL.
Extract samples using the method of embodiment 1b, as follows: skip optional step 2 of embodiment 1b; perform step 3 of embodiment 1b by drying the plate at 80° C. for about 5 min; perform step 4 of embodiment 1b by applying 1 μL of a solution of chloroform-methanol-water at a ratio by volume of 12:6:1, to which 10 mg/mL of beta-carboline has been added.
3. […]
In FIG. 1 can be seen multiple spectra for samples of a P. fluorescens strain that is susceptible to kanamycin, grown under different conditions, then extracted with a method of embodiment 1d and analyzed with a method of embodiment 2 using negative ionization mode. […]
In FIG. 2 can be seen a graph of the ratio of heavy/light LA ions from the spectra in FIG. 1, where light LA is measured as the intensity of the ion peak at 688.5 m/z and heavy LA is measured as the intensity of the ion peak at 692.5 m/z.

CC1(C)S[C@@H]2[C@H](NC(=O)C(C(=O)O)c3ccccc3)C(=O)N2[C@H]1C(=O)O (stereo partly shown) [carbenicillin]
relationship between heavy/light ratio and antibiotic concentration: lowest at the highest antibiotic concentrations
